Patent US20250296937A1, “CYCLIC BISBENZYL TETRAHYDROISOQUINOLINE COMPOUND, AND PREPARATION METHOD THEREFOR AND USE THEREOF” (Shanghai Institute of Materia Medica, Chinesse Academy of …, priority 2021, published 2025)
Entries after “also recorded” stand apart in the source; their conditions may differ.

Assays:
[1] = system: LPS-induced acute inflammation; assay: In vivo LPS-induced acute inflammation in mice (Q-PCR of lung/spleen, serum Elisa); design: species or system C57BL/6 mice; conditions: 30 mg/kg orally 2 h after 3 mg/kg LPS i.p.; samples 4 h after administration
Protocol: In this example, the effects of compounds on LPS-induced acute inflammation model in vivo were analyzed by the expression levels of inflammatory factors; the mRNA expression levels of tissue inflammation-related indicators were detected by the method of real-time quantitative PCR (Q-PCR), and the levels of inflammatory factors in serum were detected by the method of Elisa. C57BL/6 mice were purchased from SLAC, and the Elisa kits were purchased from Novusbio, with item no. 890860 for IL-6 and item no. 266117 for TNF-α. […]
Construction of inflammation model in mice: C57BL/6 mice were randomly divided into three groups: one control group, five experimental animals; one LPS modeling group, with five experimental animals; and two treatment groups, with five experimental animals. […] The blood was collected from the orbit of mice in each group at 4 h after the administration of the drug, and the spleen and lung tissues were collected after the euthanasia. mRNA was extracted from lung and spleen tissues respectively, and real-time quantitative PCR was performed after reverse transcription to assess the mRNA expression level of inflammation-related indicators, and Elisa assay was performed after serum extraction to assess the secretion level of inflammatory factors.

[2] = biological target: hNav1.5 sodium channel (Homo sapiens, UniProt Q14524)
hNav1.5 sodium channel, sequence (Q14524 whole entry): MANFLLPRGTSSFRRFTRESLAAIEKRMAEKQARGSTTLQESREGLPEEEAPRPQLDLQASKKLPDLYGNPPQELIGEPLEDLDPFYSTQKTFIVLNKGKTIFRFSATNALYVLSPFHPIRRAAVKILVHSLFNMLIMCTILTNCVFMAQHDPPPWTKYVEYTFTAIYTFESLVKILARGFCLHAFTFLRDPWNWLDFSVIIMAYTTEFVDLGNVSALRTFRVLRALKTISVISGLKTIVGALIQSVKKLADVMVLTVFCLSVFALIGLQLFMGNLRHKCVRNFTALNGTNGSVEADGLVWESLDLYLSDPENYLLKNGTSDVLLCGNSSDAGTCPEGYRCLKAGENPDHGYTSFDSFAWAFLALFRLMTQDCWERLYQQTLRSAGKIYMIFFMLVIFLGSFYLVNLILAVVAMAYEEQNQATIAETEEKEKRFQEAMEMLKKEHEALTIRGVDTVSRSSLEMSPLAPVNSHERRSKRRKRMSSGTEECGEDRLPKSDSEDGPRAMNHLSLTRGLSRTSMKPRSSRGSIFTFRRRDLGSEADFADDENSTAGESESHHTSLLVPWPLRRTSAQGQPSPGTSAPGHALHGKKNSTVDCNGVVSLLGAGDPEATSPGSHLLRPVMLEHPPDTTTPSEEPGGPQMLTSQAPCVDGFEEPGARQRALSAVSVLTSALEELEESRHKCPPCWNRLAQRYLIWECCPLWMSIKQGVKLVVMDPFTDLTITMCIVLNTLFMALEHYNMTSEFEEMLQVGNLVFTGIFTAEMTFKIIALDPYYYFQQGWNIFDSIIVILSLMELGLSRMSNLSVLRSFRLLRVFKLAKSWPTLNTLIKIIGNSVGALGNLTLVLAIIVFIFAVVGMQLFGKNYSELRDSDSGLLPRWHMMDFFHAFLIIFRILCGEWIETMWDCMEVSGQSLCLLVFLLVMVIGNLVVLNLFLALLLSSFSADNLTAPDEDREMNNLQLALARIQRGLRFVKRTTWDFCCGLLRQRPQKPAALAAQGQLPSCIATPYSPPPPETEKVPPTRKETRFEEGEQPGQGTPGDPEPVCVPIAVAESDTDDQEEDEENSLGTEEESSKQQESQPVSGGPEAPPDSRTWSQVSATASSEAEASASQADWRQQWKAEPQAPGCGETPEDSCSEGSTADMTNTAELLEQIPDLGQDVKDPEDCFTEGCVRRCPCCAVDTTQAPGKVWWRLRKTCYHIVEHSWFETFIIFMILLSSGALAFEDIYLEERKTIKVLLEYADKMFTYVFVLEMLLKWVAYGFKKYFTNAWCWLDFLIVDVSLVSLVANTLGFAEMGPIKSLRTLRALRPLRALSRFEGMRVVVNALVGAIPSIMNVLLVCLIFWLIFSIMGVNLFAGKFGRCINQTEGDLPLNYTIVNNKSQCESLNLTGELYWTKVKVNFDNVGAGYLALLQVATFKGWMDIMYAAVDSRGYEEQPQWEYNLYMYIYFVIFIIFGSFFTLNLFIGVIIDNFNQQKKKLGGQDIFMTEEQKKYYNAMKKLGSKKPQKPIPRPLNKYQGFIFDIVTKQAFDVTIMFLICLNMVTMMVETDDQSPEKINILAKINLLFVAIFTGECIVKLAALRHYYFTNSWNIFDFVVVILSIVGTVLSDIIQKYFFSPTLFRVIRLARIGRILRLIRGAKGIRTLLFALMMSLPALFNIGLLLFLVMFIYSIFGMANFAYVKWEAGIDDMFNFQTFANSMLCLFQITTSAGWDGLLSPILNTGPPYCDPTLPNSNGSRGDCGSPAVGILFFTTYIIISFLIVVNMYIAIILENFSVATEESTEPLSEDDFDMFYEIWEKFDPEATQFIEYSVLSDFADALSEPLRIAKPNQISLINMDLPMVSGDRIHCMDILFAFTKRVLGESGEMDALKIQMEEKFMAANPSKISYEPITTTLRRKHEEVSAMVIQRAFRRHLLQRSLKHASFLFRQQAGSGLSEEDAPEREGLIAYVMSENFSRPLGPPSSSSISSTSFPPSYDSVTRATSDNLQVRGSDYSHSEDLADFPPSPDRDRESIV
Source text: Nav1.5: CHL cells stably expressing hNav1.5 sodium channel was used to record hNav1.5 sodium channel currents by whole-cell membrane clamp technique at room temperature. The glass microelectrodes were made from glass electrode blanks (BF150-86-10, Sutter) by pulling through a puller, and the tip resistance was about 2-5 MΩ after filling the electrode with internal fluid, and the glass microelectrodes were connected to Axopatch 200B (Molecular Devices) membrane clamp amplifier by inserting the glass microelectrodes into the amplifier probe. Clamp voltage and data recording were controlled and recorded by pClamp 10 software via a computer with a sampling frequency of 10 kHz and a filtering frequency of 2 kHz. After obtaining whole-cell recordings, the cells were clamped at −80 mV, given a hyperpolarizing voltage of 200 ms to −120 mV, and then depolarized to −20 mV for 20 ms to evoke a Nav1.5 current. This voltage stimulus was given every 10 s; after the hNav1.5 sodium current was determined to be stabilized (for at least 1 min), begins the dosing process. Concentrations of the sample to be tested were administered continuously starting from low test concentration, and each test concentration was given for 1 min to reach steady state of action or for a maximum of 3 min. A minimum of 3 cells (n≥3) were tested at each concentration of the sample to be tested, and a minimum of 2 cells (n≥2) were tested at each concentration of the positive control.
Extracellular fluid formulation (mM): 140 NaCl, 5 KCl, 1 CaCl2, 1.25 MgCl2, 10 HEPES and 10 Glucose, adjusting the pH to 7.4 with NaOH.
Intracellular fluid formulation (mM): 130 CsF, 10 NaCl, 10 EGTA and 10 HEPES, adjusting the pH to 7.2 with CsOH.

Structure (SMILES) | inflammatory factors and chemokines, mRNA levels and cytokine secretion levels, LPS-induced acute inflammation in mice [1] | activity against Nav1.5 channels [2]
COc1cc2c3cc1Oc1c(OC)c(OC)cc4c1[C@H](Cc1ccc(cc1)Oc1cc(ccc1C(N)=O)C[C@H]3N(C)CC2)N(C)CC4 [Compound 4] | significantly inhibited; also recorded: significant decrease | –
CCCCNC(=O)Oc1ccc2cc1Oc1ccc(cc1)C[C@H]1c3c(cc(OC)c(OC)c3Oc3cc4c(cc3OC)CCN(C)[C@@H]4C2)CCN1C [Compound 2] | – | weakly active
